Results published in patent US9125913B2, “Bcl-2-selective apoptosis-inducing agents for the treatment of cancer and immune diseases” (AbbVie Inc., priority 2008, dated 2015).

Legend:
GST-Bcl-2 = assay: TR-FRET binding assay, Bcl-2; settings: TR-FRET Ki values
In short: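 Compounds serially diluted in DMSO from 50 μM (2× starting concentration, 10% DMSO), mixed with GST-tagged protein, F-Bak peptide probe and Tb-labeled antibody, incubated 3 h at room temperature.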

FL5.12/Bcl-2 cells = assay: FL5.12/Bcl-2 cell viability assay; format: cell-based, murine; settings: ratio of canine platelet EC50 to FL5.12/Bcl-2 EC50
Description: FL5.12 is an IL-3 dependent prolymphocytic murine cell line that undergoes apoptosis upon IL-3 withdrawal as a result of the upregulation of pro-apoptotic Bcl-2 proteins such as Bim and Puma. Stable overexpression of anti-apoptotic Bcl-2 protein (FL5.12/Bcl-2) protects against apoptosis induced by IL-3 withdrawal by sequestration of Bim and Puma. […] The ability of compounds to kill FL5.12/Bcl-2 cells upon IL-3 withdrawal is a direct measure of the compounds' ability to inhibit anti-apoptotic Bcl-2 protein function.
Wild type FL5.12/Bcl-2 overexpressing stable transfectants were cultured in RPMI-1640 supplemented with 2 mM L-glutamine, 10% FBS, 1 mM sodium pyruvate, 2 mM HEPES, 1% penicillin/streptomycin (Invitrogen), 57 μM β-ME, and 10% WEHI-3B conditioned medium (source of IL-3) and maintained at 37° C. containing 5% CO2. 1×10^6 cells/ml were washed 1×PBS and resuspended in medium not supplemented with 10% WEHI-3B for 48 hrs prior to cytotoxicity assays. Cells were then treated for an additional 24 hrs in the presence of various concentrations of the indicated compounds. Cell viability was assessed by CellTitre Glo assay (Promega Corp.) according to the manufacturer's recommendations.

Compound	Binding selectivity ratio (Bcl-XL Ki/Bcl-2 Ki) (GST-Bcl-2)	Selectivity Ratio (Platelet EC50/FL5.12/Bcl-2 EC50) (FL5.12/Bcl-2 cells)
O=C(NS(=O)(=O)c1ccc(NCCCN2CCCC2)c([N+](=O)[O-])c1)c1ccc(N2CCN(CC3=C(c4ccc(Cl)cc4)CCCCC3)CC2)cc1Oc1cccc2[nH]ccc12 [Example 141, 4-(4-{[2-(4-chlorophenyl)cyclohept-1-en-1-yl]methyl}piperazin-1-yl)-2-(1H-indol-4-yloxy)-N-({3-nitro-4-[(3-pyrrolidin-1-ylpropyl)amino]phenyl}sulfonyl)benzamide]	42.6	>661
CN(C)CCOc1ccc(-c2ccc(Cl)cc2)c(CN2CCN(c3ccc(C(=O)NS(=O)(=O)c4ccc(NCC5CCOCC5)c([N+](=O)[O-])c4)c(Oc4cccc5[nH]ccc45)c3)CC2)c1 [Example 125, 4-[4-({4′-chloro-4-[2-(dimethylamino)ethoxy]-1,1′-biphenyl-2-yl}methyl)piperazin-1-yl]-2-(1H-indol-4-yloxy)-N-({3-nitro-4-[(tetrahydro-2H-pyran-4-ylmethyl)amino]phenyl}sulfonyl)benzamide]	3879	4719
O=C(NS(=O)(=O)c1ccc(NCC2CCOCC2)c([N+](=O)[O-])c1)c1ccc(N2CCN(Cc3ccccc3-c3ccc(Cl)cc3)CC2)cc1Oc1ccc2[nH]ccc2c1 [Example 40, 4-{4-[(4′-chloro-1,1′-biphenyl-2-yl)methyl]piperazin-1-yl}-2-(1H-indol-5-yloxy)-N-({3-nitro-4-[(tetrahydro-2H-pyran-4-ylmethyl)amino]phenyl}sulfonyl)benzamide]	>1236.0	>303
CN(C)CCCNc1ccc(S(=O)(=O)NC(=O)c2ccc(N3CCN(Cc4ccccc4-c4ccc(Cl)cc4)CC3)cc2Oc2ccccc2)cc1[N+](=O)[O-] [Example 154, 4-{4-[(4′-chloro-1,1′-biphenyl-2-yl)methyl]piperazin-1-yl}-N-[(4-{[3-(dimethylamino)propyl]amino}-3-nitrophenyl)sulfonyl]-2-phenoxybenzamide]	40.4	343
CC1(C)CCC(CN2CCN(c3ccc(C(=O)NS(=O)(=O)c4ccc(NCCCN5CCCC5)c([N+](=O)[O-])c4)c(Oc4cccc5[nH]ccc45)c3)CC2)=C(c2cccc(F)c2)C1 [Example 72, 4-(4-{[2-(3-fluorophenyl)-4,4-dimethylcyclohex-1-en-1-yl]methyl}piperazin-1-yl)-2-(1H-indol-4-yloxy)-N-({3-nitro-4-[(3-pyrrolidin-1-ylpropyl)amino]phenyl}sulfonyl)benzamide]	17.3	>325
CN(C)CCOc1ccc(-c2ccc(Cl)cc2)c(CN2CCN(c3ccc(C(=O)NS(=O)(=O)c4ccc(NCCCN5CCCC5)c([N+](=O)[O-])c4)c(Oc4ccc5[nH]ccc5c4)c3)CC2)c1 [Example 135, 4-[4-({4′-chloro-4-[2-(dimethylamino)ethoxy]-1,1′-biphenyl-2-yl}methyl)piperazin-1-yl]-2-(1H-indol-5-yloxy)-N-({3-nitro-4-[(3-pyrrolidin-1-ylpropyl)amino]phenyl}sulfonyl)benzamide]	779.9	108
CN(C)CCOc1ccc(-c2ccc(Cl)cc2)c(CN2CCN(c3ccc(C(=O)NS(=O)(=O)c4ccc(NCC5CCOCC5)c([N+](=O)[O-])c4)c(Oc4ccc5[nH]ccc5c4)c3)CC2)c1 [Example 126, 4-[4-({4′-chloro-4-[2-(dimethylamino)ethoxy]-1,1′-biphenyl-2-yl}methyl)piperazin-1-yl]-2-(1H-indol-5-yloxy)-N-({3-nitro-4-[(tetrahydro-2H-pyran-4-ylmethyl)amino]phenyl}sulfonyl)benzamide]	13575	>1618
CN1CCC(Nc2ccc(S(=O)(=O)NC(=O)c3ccc(N4CCN(CC5=C(c6ccc(Cl)cc6)CC(C)(C)C5)CC4)cc3Oc3cccc4[nH]ccc34)cc2[N+](=O)[O-])CC1 [Example 144, 4-(4-{[2-(4-chlorophenyl)-4,4-dimethylcyclopent-1-en-1-yl]methyl}piperazin-1-yl)-2-(1H-indol-4-yloxy)-N-({4-[(1-methylpiperidin-4-yl)amino]-3-nitrophenyl}sulfonyl)benzamide]	>12.2	864
CN1CCC(Nc2ccc(S(=O)(=O)NC(=O)c3ccc(N4CCN(CC5=C(c6ccc(Cl)cc6)CC(C)(C)CC5)CC4)cc3Oc3ccc4[nH]ccc4c3)cc2[N+](=O)[O-])CC1 [Example 98, 4-(4-{[2-(4-chlorophenyl)-4,4-dimethylcyclohex-1-en-1-yl]methyl}piperazin-1-yl)-2-(1H-indol-5-yloxy)-N-({4-[(1-methylpiperidin-4-yl)amino]-3-nitrophenyl}sulfonyl)benzamide]	>50769.2	4849
CC1(C)CCC(CN2CCN(c3ccc(C(=O)NS(=O)(=O)c4ccc(NCCCN5CCCC5)c([N+](=O)[O-])c4)c(Oc4cccc5[nH]ccc45)c3)CC2)=C(c2ccc(F)cc2)C1 [Example 73, 4-(4-{[2-(4-fluorophenyl)-4,4-dimethylcyclohex-1-en-1-yl]methyl}piperazin-1-yl)-2-(1H-indol-4-yloxy)-N-({3-nitro-4-[(3-pyrrolidin-1-ylpropyl)amino]phenyl}sulfonyl)benzamide]	9.9	166
CN(C)CCCOc1ccc(S(=O)(=O)NC(=O)c2ccc(N3CCN(Cc4ccccc4-c4ccc(Cl)cc4)CC3)cc2Oc2ccccc2)cc1[N+](=O)[O-] [Example 94, 4-{4-[(4′-chloro-1,1′-biphenyl-2-yl)methyl]piperazin-1-yl}-N-({4-[3-(dimethylamino)propoxy]-3-nitrophenyl}sulfonyl)-2-phenoxybenzamide]	33.1	590
CN(C)CCCOc1ccc(S(=O)(=O)NC(=O)c2ccc(N3CCN(CC4=C(c5ccc(Cl)cc5)CC(C)(C)CC4)CC3)cc2Oc2cccc3[nH]ccc23)cc1[N+](=O)[O-] [Example 106, 4-(4-{[2-(4-chlorophenyl)-4,4-dimethylcyclohex-1-en-1-yl]methyl}piperazin-1-yl)-N-({4-[3-(dimethylamino)propoxy]-3-nitrophenyl}sulfonyl)-2-(1H-indol-4-yloxy)benzamide]		1657
CC(C)Oc1cc(-c2ccc(Cl)cc2)c(CN2CCN(c3ccc(C(=O)NS(=O)(=O)c4ccc(NCC5CCOCC5)c([N+](=O)[O-])c4)c(Oc4ccc5[nH]ccc5c4)c3)CC2)cn1 [EXAMPLE 330, 4-(4-{[4-(4-chlorophenyl)-6-isopropoxypyridin-3-yl]methyl}piperazin-1-yl)-2-(1H-indol-5-yloxy)-N-({3-nitro-4-[(tetrahydro-2H-pyran-4-ylmethyl)amino]phenyl}sulfonyl)benzamide]	>8.8	
